PMC6917776, “Discovery of a chemical probe for PRDM9” (Nature Communications, 2019)

Tests used:
Assay type in all cases: cell-based
MDA-MB-436 = assay: CelltiterGlo viability cell assay; details: up to 30 μM; days 3 and 6; matched control line
Procedure, shortened: (§1)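 Dose range 0.01 μM to 30 μM, exposure 3 or 6 days. Read-out: CelltiterGlo, as a percentage of DMSO vehicle, averaged over three biological replicates with SEM.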

CAL851 = assay: CelltiterGlo viability cell assay; details: up to 30 μM; days 3 and 6; Prdm9 expressing line
Procedure, shortened: as §1

RPMI-8226 = assay: CelltiterGlo viability cell assay; details: up to 30 μM; days 3 and 6; matched control line
Procedure, shortened: as §1

PRDM9 = PRDM9 (Homo sapiens, UniProt Q9NQV7); assay: PRDM9 cellular assay: H3K4me3 of exogenous H3-GFP in HEK293T cells (western blot); details: for IC50: H3-GFP and PRDM9-FLAG co-transfected, 20 h of treatment, read-out: IC50, PRDM9-dependent trimethylation of ectopic H3K4
Chain of PRDM9 (Q9NQV7 whole entry): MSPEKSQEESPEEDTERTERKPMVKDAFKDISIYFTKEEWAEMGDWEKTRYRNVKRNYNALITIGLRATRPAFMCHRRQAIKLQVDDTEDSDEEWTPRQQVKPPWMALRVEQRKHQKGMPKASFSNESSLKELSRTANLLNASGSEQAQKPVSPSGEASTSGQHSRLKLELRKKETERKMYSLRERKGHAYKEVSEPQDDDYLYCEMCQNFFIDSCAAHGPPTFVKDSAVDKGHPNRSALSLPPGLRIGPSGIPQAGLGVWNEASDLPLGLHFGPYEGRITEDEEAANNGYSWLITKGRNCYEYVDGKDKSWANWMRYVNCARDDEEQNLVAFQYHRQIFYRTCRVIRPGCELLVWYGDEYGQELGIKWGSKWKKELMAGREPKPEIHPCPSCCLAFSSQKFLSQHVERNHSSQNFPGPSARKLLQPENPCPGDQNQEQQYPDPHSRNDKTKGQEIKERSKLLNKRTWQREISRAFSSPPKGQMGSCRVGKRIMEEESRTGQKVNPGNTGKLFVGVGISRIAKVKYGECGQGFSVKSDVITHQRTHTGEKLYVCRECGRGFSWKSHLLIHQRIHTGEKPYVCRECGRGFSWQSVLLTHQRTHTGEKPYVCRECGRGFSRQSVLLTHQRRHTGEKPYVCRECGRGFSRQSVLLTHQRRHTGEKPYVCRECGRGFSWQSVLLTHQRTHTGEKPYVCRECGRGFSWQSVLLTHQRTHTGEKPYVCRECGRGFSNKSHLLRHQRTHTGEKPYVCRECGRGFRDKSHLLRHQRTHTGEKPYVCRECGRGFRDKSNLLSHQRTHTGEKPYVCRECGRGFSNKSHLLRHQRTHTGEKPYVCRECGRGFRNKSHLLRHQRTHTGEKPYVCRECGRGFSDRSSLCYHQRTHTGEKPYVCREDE
Method: HEK293T cells were co-transfected with H3-GFP and PRDM9-FLAG and treated with compounds at indicated concentrations for 20 h. Mut denotes PRDM9 catalytic mutant (Y357S). […] Cells were treated with compounds for 1 day. Cell number was measured using IncuCyte™ ZOOM live cell imaging device. The results are mean ± sd, n = 3. Source data are provided as a Source Data file.
HEK293T (kind gift from Sam Benchimol, York University), or MCF7 (ATCC® HTB-22™), cells were plated (12 well plates) and next day co-transfected with 0.1 (HEK293T) or 0.2 (MCF7) µg of GFP-tagged histone H3 and with 0.1 (HEK293T) or 0.2 (MCF7) µg of Flag-tagged PRDM9/PRDM9 catalytic mutant (Y357S) and 0.8 or 0.6 µg of empty vector using JetPRIME® transfection reagent, following manufacturer instructions. After 4 h media was removed and cells were treated with compounds for 20 h. Next day, cells were lysed in lysis buffer (20 mM Tris-HCl pH 8, 150 mM NaCl, 1 mM EDTA, 10 mM MgCl2, 0.5% TritonX-100, 12.5 U mL^−1 benzonase (Sigma), complete EDTA-free protease inhibitor cocktail (Roche)). After 2 min incubation at RT, SDS was added to final 1% concentration. Cell lysates were analyzed in western blot for GFP and H3K4me3 levels. All cell lines were mycoplasma negative, as determined by MycoAlert™ Mycoplasma Detection Kit (Lonza).
Total cell lysates were resolved in 4–12% Bis-Tris Protein Gels (Invitrogen) and transferred in for 1.5 h (80 V) onto PVDF membrane (Millipore) in Tris-Glycine transfer buffer containing 20% MeOH and 0.05% SDS. Blots were blocked for 1 h in blocking buffer (5% milk in PBS) and incubated with primary antibodies anti-GFP (1:3000, Clontech # 632381), anti-H3K4me3 (1:1000, Millipore, #04-745), anti-histone H3 (1:2000, #ab10799, Abcam), anti-Flag (1:5000, #F4799, Sigma) in blocking buffer (5% BSA in 0.1% Tween 20 PBS) overnight at 4 °C. After five washes with 0.1% Tween 20 PBS the blots were incubated with goat-anti rabbit (IR800) and donkey anti-mouse (IR 680) antibodies (1:5000) in Odyssey Blocking Buffer (LiCor) for 1 h at RT and washed five times with 0.1% Tween 20 PBS. The signal was read on an Odyssey scanner (LiCor) at 800 nm and 700 nm and analyzed with Image Studio Ver.5.2 software.

[1] = HEK-293T, 20 h, Figure 6b, replicates, read-out: H3K4me3/GFP - western blot, % control

Row | SMILES | Effect on proliferation (in words) (MDA-MB-436) | Effect on proliferation (in words) (CAL851) | Effect on proliferation (in words) (RPMI-8226) | IC50 (PRDM9) | remaining activity at 0.256 µM (PRDM9; HEK-293T, 20 h, 0.256 µM, Figure 6b, replicates, read-out: H3K4me3/GFP - western blot, % control) | remaining activity at 0.64 µM (PRDM9; HEK-293T, 20 h, 0.64 µM, Figure 6b, replicates, read-out: H3K4me3/GFP - western blot, % control) | remaining activity at 1.6 µM (PRDM9; HEK-293T, 20 h, 1.6 µM, Figure 6b, replicates, read-out: H3K4me3/GFP - western blot, % control) | remaining activity at 3.33334 µM (PRDM9; [1]) | remaining activity at 4 µM (PRDM9; HEK-293T, 20 h, 4 µM, Figure 6b, replicates, read-out: H3K4me3/GFP - western blot, % control) | remaining activity at 10 µM (PRDM9; HEK-293T, 20 h, 10 µM, Figure 6b, replicates, read-out: H3K4me3/GFP - western blot, % control) | remaining activity at 0.123455 µM (PRDM9; HEK-293T, 20 h, 0.123455 µM, Figure 6b, replicates, read-out: H3K4me3/GFP - western blot, % control) | remaining activity at 0.370374 µM (PRDM9; HEK-293T, 20 h, 0.370374 µM, Figure 6b, replicates, read-out: H3K4me3/GFP - western blot, % control) | remaining activity at 1.11111 µM (PRDM9; HEK-293T, 20 h, 1.11111 µM, Figure 6b, replicates, read-out: H3K4me3/GFP - western blot, % control) | remaining activity at 30 µM (PRDM9; HEK-293T, 20 h, 30 µM, Figure 6b, replicates, read-out: H3K4me3/GFP - western blot, % control) | IC90 (PRDM9; HEK-293T, read-out: IC90, PRDM9-dependent H3K4 trimethylation in cells)
1 | COc1cc(OC)cc(-c2noc(N3CCN(C)C4(CCN(c5ccccc5)CC4)C3)n2)c1 [MRK-740-NC] | did not have any significant effect | did not have any significant effect | did not have any significant effect | > 10 µM | 100% | 89.9% | 103% | 113% | 111% | 116% |  |  |  |  | 
2 | COc1cc(OC)cc(-c2noc(N3CCN(C)C4(CCN(c5ccnc(C)c5)CC4)C3)n2)c1 [MRK-740] | did not have any significant effect | did not have any significant effect | did not have any significant effect | 0.8 ± 0.1 µM |  |  |  | 11.4% |  |  | 109% | 89.7% | 25.7% | 3.21% | 3 µM
